Measured values published in publication PMC3184957, “Improving a Natural CaMKII Inhibitor by Random and Rational Design” (PLoS ONE, 2011).
Entries after “also recorded” stand apart in the source; their conditions may differ. Read-outs that look alike come from different tables or passages of the source. Ends that are not written are not given here.

What was measured:
CaMKIIα = molecular target: T1, CaMKIIα (Rattus norvegicus, UniProt P11275); assay: CaMKII activity assay, phosphorylation of syntide 2; assay type: biochemical; details: for CaMKII activity remaining at 5 nM peptide: 5 nM peptide (Figs. S6, 7B); for effect of rational mutation in CN19a2v / CN19o on CaMKII inhibition (Fig. 6): compared with CN19a2v or CN19o, Fig. 6C CaMKII 0.5 nM; for fold greater potency of CaMKII inhibition compared to CN19: ratio of IC50 values; for effect of individual mutation of CN19 on potency of CaMKII inhibition: compared with CN19, some substitutions tested in CN19a2 or a3; for fold reduction of potency of CaMKII inhibition compared to CN19 (Ala scan): Ala substitution in CN19, Fig. 2
T1 construct: made in house; host or cells: baculovirus/Sf9 (CaMKII); bacteria (CaM)
Description: CaM and CaMKII was purified after bacterial or baculovirus/Sf9 cell expression as described, [47]. Other kinases were purchased (PKA and PKC from PhosphoSolutions; others from SignalChem). […] All CN peptides were N-terminally acetylated and C-terminally amidated, except for the peptides used for the initial Ala scan. Substrate peptides were purchase from Genescript or as indicated. Chemicals were obtained from Sigma and Perkin Elmer. […] For all kinase activity assays, reactions were stopped by spotting onto P81 cation exchange chromatography paper (Whatman) squares. After extensive washes in water, phosphorylation of the substrate peptide bound to the P81 paper was measured by the Cherenkov method.

PKA = molecular target: T2, PKA (Bos taurus, UniProt P00517); assay: PKA activity assay; assay type: biochemical, bovine; details: 5 µM peptide; 5 nM PKA catalytic subunits, 10 min, Kemptide
T2 construct: PKA and PKC were purified from bovine heart or rat brain, respectively; purchased PhosphoSolutions; host or cells: bovine heart
Description: (§1) For all kinase activity assays, reactions were stopped by spotting onto P81 cation exchange chromatography paper (Whatman) squares. After extensive washes in water, phosphorylation of the substrate peptide bound to the P81 paper was measured by the Cherenkov method.
(§2) Reactions were performed essentially as described for CaMKII. However, for AMPK, 100 µM AMP was added to the reaction. For AMPK, PKC, and PKA, the reaction mix contained 1 mM EGTA instead of CaCl2 and CaM. Prior to activity assays, CaMKI (12.5 nM) and CaMKIV (80 nM) were phosphorylated by CaMKKα (1.25–4 nM) for 5 min at 30°C in Ca^2+/CaM containing buffer. Additionally, kinase amount, reaction time, and the substrate (obtained from different companies as indicated) was varied as follows: 2.5 nM CaMKIα, 3 min, syntide 2 (Genescript); 5 nM CaMKIV, 10 min, CaMK2g 345–358 peptide (Anaspec); 2.5 nM DAPK1 1–363, 3 min, MLC-derived peptide (Anaspec); 5 nM AMPK-α2β1γ1, 10 min, SAMStide (SignalChem); 5 nM PKA, 10 min, Kemptide (Genescript); 2 nM PKC, 10 min, MARCKS peptide (Anaspec). PKA and PKC were purified from bovine heart or rat brain, respectively. […] Other kinases were recombinant protein from mouse (CaMKI) or human (CaMKK, CaMKIV, DAPK1, AMPK), of the isoform and/or subunit composition indicated above.

AMPK-α2β1γ1 = molecular target: T3, AMPK-α2β1γ1 (Homo sapiens, UniProt P54619+P54646+Q9Y478); assay: AMPK activity assay; assay type: biochemical; details: 5 µM peptide; 5 nM AMPK, 10 min, SAMStide, 100 µM AMP
T3 construct: purchased SignalChem
T3 sequence (P54646 whole entry): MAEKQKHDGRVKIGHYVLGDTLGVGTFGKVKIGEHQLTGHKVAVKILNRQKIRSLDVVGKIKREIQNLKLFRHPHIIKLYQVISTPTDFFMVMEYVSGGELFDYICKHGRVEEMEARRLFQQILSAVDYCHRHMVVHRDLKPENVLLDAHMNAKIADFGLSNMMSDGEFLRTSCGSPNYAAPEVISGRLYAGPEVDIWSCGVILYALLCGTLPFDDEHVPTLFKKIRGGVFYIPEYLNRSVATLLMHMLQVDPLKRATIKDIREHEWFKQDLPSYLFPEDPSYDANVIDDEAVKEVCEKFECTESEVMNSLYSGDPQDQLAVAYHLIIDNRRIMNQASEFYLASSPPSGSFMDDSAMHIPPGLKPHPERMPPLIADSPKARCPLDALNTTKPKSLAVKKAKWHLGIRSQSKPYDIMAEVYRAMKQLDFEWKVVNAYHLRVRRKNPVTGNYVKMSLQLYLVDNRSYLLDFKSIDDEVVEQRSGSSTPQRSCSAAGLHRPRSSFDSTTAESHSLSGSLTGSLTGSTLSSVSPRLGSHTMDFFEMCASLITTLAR
T3 sequence (Q9Y478 whole entry partner): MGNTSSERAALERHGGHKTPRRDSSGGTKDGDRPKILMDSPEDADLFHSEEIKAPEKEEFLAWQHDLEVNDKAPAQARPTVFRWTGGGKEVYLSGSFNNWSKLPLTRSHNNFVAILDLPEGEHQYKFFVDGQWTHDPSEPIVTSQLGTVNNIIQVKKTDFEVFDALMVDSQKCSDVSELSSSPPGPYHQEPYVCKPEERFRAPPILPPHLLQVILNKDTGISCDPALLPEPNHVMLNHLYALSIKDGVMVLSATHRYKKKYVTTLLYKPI
T3 sequence (P54619 whole entry partner): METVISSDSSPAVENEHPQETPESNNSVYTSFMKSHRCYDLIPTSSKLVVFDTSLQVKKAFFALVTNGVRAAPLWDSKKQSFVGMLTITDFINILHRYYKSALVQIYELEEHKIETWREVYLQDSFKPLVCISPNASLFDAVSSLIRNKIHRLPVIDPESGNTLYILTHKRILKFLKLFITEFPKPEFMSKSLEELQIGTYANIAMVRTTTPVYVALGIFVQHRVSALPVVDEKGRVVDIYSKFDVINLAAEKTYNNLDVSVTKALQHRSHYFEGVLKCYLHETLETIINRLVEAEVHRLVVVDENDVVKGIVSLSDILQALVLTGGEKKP
Description: as §1, §2

CaMKIV = molecular target: T4, CaMKIV (Homo sapiens, UniProt Q16566); assay: CaMKIV activity assay; assay type: biochemical; details: 5 µM peptide; 5 nM CaMKIV, 10 min, CaMK2g 345–358 peptide
T4 construct: purchased SignalChem
Description: as §1, §2

PKC = PKC activity assay; assay type: biochemical, rat; details: 5 µM peptide; 2 nM PKC (PKM fragment), 10 min, MARCKS peptide
Description: as §1, §2

CaMKIα = molecular target: T5, CaMKIα (Mus musculus, UniProt Q91YS8); assay: CaMKI activity assay; assay type: biochemical; details: for IC50: 2.5 nM CaMKIα, 3 min, syntide 2, curve fit with Hill coefficient set as 1 (Fig. S5), read-out: IC50 of CaMKI inhibition; for effect on CaMKI activity at 5 µM peptide: 5 µM peptide (Figs. 5, 7B)
T5 construct: purchased SignalChem
Description: as §1, §2

DAPK1 1–363 = molecular target: T6, DAPK1 1–363 (Homo sapiens, UniProt P53355); assay: DAPK1 activity assay; assay type: biochemical; details: 5 µM peptide; 2.5 nM DAPK1 1–363, 3 min, MLC-derived peptide
T6 construct: 2.5 nM DAPK1 1–363, 3 min, MLC-derived peptide (Anaspec); purchased SignalChem
Description: as §1, §2

CaMKII = molecular target: T7, CaMKII (Rattus norvegicus, UniProt P11275); assay: CaMKII activity assay, T-site binding substrate AC3; assay type: biochemical; details: S- and T-site binding substrate AC3, competitive inhibition (Fig. S1); read-out: IC50 for inhibition of CaMKII activity towards AC3
T7 construct: made in house; host or cells: baculovirus/Sf9 (CaMKII); bacteria (CaM)
Description: Standard reactions (1 min at 30°C) were started by adding CaMKIIα (2.5 nM subunits, unless stated otherwise) to a mix of 50 mM PIPES pH 7.2, 0.1% BSA, 1 µM CaM, 1 mM CaCl2, 10 mM MgCl2, 100 µM [γ-^32P]ATP (∼1 Ci/mmole), 75 µM substrate peptide (syntide 2, or as indicated), and inhibitor peptide as indicated. Reactions with 0.1 nM CaMKII were done for 10 min.
as §1
Systematic further truncation of CN21 defined the minimal inhibitory region, CN19 (Fig. 1B). […] Thus, the peptide C-terminally truncated by 2 amino acids (now termed CN19) contains the minimal inhibitory region with full inhibitory potency. Phosphorylation of syntide 2 by CaMKII was inhibited by CN21, CN20 and CN19 with an IC50 of ∼100 nM (Fig. 1C). Syntide 2 is a “regular” S-site binding CaMKII substrate, and CN peptides inhibit its phosphorylation in a non-competitive manner. We additionally tested AC3, an S- and T-site binding substrate, as this T-site binding results in competitive inhibition by CN peptides, which also bind to the T-site. […]

[1] = class estimated from syntide 2 phosphorylation at 0.3 and 0.1 µM peptide, Ala scan peptides not N-acetylated / C-amidated, read-out: IC50 [μM] (Ala scan of CN19, Fig. 2)
[2] = values compared from Figs. 1, 4 and 7, read-out: CaMKII IC50 (Fig. S5 table and legend)
[3] = in vitro [γ-32P]ATP assay, substrate syntide 2, 30°C, approximate values (Figs. 1C, 4B, 6), read-out: IC50 of inhibition of CaMKII phosphorylation of syntide 2

Substance: ARPPKLGQIGRSKRVVIED [K1A]
- IC50 (CaMKIIα; [1]): < 0.3 µM

Substance: Ac-KRAPKLGQIGRQKAVDIED-NH2 [CN19o]
- CaMKII activity remaining at 5 nM peptide (CaMKIIα): blocked CaMKII activity almost completely
- IC50 (CaMKIIα; CaMKII reduced to 0.1 nM, 10 min reaction, IC50 dependent on CaMKII concentration (tight binding inhibitor), read-out: IC50 for CaMKII inhibition by CN19o (Fig. 7A)): < 0.0004 µM
- effect of rational mutation in CN19a2v / CN19o on CaMKII inhibition (Fig. 6) (CaMKIIα): increased potency even further
- fold greater potency of CaMKII inhibition compared to CN19 (CaMKIIα): > 250 fold
- IC50 (CaMKIIα; [2]): 0.0004 µM
- effect on PKA activity at 5 µM (PKA): did not significantly affect
- effect on AMPK activity at 5 µM (AMPK-α2β1γ1): did not significantly affect
- effect on CaMKIV activity at 5 µM (CaMKIV): did not significantly affect
- effect on PKC activity at 5 µM (PKC): did not significantly affect
- fold increase of selectivity for CaMKII vs CaMKI compared to CN19 (CaMKIα): > 250 fold
- IC50 (CaMKIα): 38000 nM
- effect on CaMKI activity at 5 µM peptide (CaMKIα): did not significantly affect
- CaMKII selectivity (Fig. S5 table) (CaMKIα; ratio CaMKI IC50 / CaMKII IC50): > 100,000 x
- selectivity for CaMKII vs CaMKI (CaMKIα; ratio CaMKI IC50 / CaMKII IC50): ~100,000 fold
- effect on DAPK1 activity at 5 µM (DAPK1 1–363): did not significantly affect

Substance: Ac-KRAPKLGQIGRQKAVVIED-NH2 [CN19a2v V12Q]
- effect of rational mutation in CN19a2v / CN19o on CaMKII inhibition (Fig. 6) (CaMKIIα): significantly increased potency
- IC50 (CaMKIIα; [3]): ~0.001 µM

Substance: Ac-KRAPKLGQIGRVKAVDIED-NH2 [CN19a2v V16D]
- effect of rational mutation in CN19a2v / CN19o on CaMKII inhibition (Fig. 6) (CaMKIIα): significantly increased potency
- IC50 (CaMKIIα; [3]): ~0.001 µM

Substance: Ac-KRAPKLGQIGRVKAVVIED-NH2 [CN19a2v]
- CaMKII activity remaining at 5 nM peptide (CaMKIIα): ~75%
- potency of CN19 combination mutants (Fig. 4) (CaMKIIα; 20 nM peptide, syntide 2): without loss of its potency; also recorded: significantly stronger compared to CN19a3 with additional S12V mutation (CN19a3v)
- effect of further mutation in CN19a2 on CaMKII inhibition (Figs. S3B, S4B) (CaMKIIα; compared with CN19a2): retained potency of CaMKII inhibition
- fold greater potency of CaMKII inhibition compared to CN19 (CaMKIIα): ~5 fold
- IC50 (CaMKIIα; [2]): 0.02 µM
- fold greater potency of CaMKI inhibition compared to CN19 (CaMKIα): ~2 fold
- fold increase of selectivity for CaMKII vs CaMKI compared to CN19 (CaMKIα): ~2.5 fold
- IC50 (CaMKIα): 18000 nM
- effect on CaMKI activity at 5 µM peptide (CaMKIα): did not inhibit
- CaMKI activity at 20 µM peptide (CaMKIα; 20 µM peptide, remaining activity (Fig. 5B)): ~60%
- selectivity for CaMKII vs CaMKI (CaMKIα; ratio CaMKI IC50 / CaMKII IC50): ~900 fold

Substance: Ac-KRPPKLGQIGRSKRVVIED-NH2 [CN19]
- IC50 (CaMKIIα; [2]): 0.1 µM
- IC50 (CaMKII): ~1000 nM
- IC50 (CaMKIα): 36000 nM
- effect on CaMKI activity at 5 µM peptide (CaMKIα): did not significantly inhibit
- selectivity for CaMKII vs CaMKI (CaMKIα; ratio CaMKI IC50 / CaMKII IC50): ~360 fold

Substance: Ac-KRPPKLGQIGRSKRVVIEDD-NH2 [CN20]
- effect of CN21 truncation on CaMKII inhibition (Fig. 1B) (CaMKIIα; CaMKII 20 nM, 40 µM syntide 2): not different between each other
- IC50 (CaMKIIα; [3]): ~0.1 µM

Substance: Ac-KRPPKLGQIGRSKRVVIEDDR-NH2 [CN21, reference compound]
- IC50 (CaMKIIα): ~0.1 µM
- IC50 (CaMKII): ~1000 nM
- effect on CaMKI activity at 5 µM peptide (CaMKIα): did not significantly inhibit

Substance: H-KRPPKLGAIGRSKRVVIED-OH [Q8A]
- IC50 (CaMKIIα; [1]): ~0.1 µM

Substance: H-KRPPKLGQIGRSKRVAIED-OH [V16A]
- IC50 (CaMKIIα; [1]): ~0.1 µM

Substance: KAPPKLGQIGRSKRVVIED [R2A]
- IC50 (CaMKIIα; [1]): < 0.3 µM

Substance: KRAPKLGQIGRSKRVVIED [P3A]
- IC50 (CaMKIIα; [1]): < 0.1 µM
- effect of individual mutation of CN19 on potency of CaMKII inhibition (CaMKIIα; syntide 2): significantly increased potency

Substance: KRPAKLGQIGRSKRVVIED [P4A]
- IC50 (CaMKIIα; [1]): > 0.3 µM

Substance: KRPPALGQIGRSKRVVIED [K5A]
- IC50 (CaMKIIα; [1]): < 0.3 µM

Substance: KRPPKAGQIGRSKRVVIED [L6A]
- IC50 (CaMKIIα; [1]): > 0.3 µM

Substance: KRPPKLAQIGRSKRVVIED [G7A]
- IC50 (CaMKIIα; [1]): < 0.3 µM

Substance: KRPPKLGQAGRSKRVVIED [I9A]
- IC50 (CaMKIIα; [1]): > 0.3 µM

Substance: KRPPKLGQIARSKRVVIED [G10A]
- IC50 (CaMKIIα; [1]): > 0.3 µM

Substance: KRPPKLGQIGASKRVVIED [R11A]
- fold reduction of potency of CaMKII inhibition compared to CN19 (Ala scan) (CaMKIIα): more than 3 fold
- IC50 (CaMKIIα; [1]): > 0.3 µM

Substance: KRPPKLGQIGRAKRVVIED [S12A]
- fold reduction of potency of CaMKII inhibition compared to CN19 (Ala scan) (CaMKIIα): more than 3 fold
- IC50 (CaMKIIα; [1]): > 0.3 µM

Substance: KRPPKLGQIGRSARVVIED [K13A]
- IC50 (CaMKIIα; [1]): < 0.1 µM
- effect of individual mutation of CN19 on potency of CaMKII inhibition (CaMKIIα; syntide 2): significantly increased potency

Substance: KRPPKLGQIGRSKAVVIED [R14A]
- IC50 (CaMKIIα; [1]): < 0.1 µM
- effect of individual mutation of CN19 on potency of CaMKII inhibition (CaMKIIα; syntide 2): significantly increased potency

Substance: KRPPKLGQIGRSKRAVIED [V15A]
- IC50 (CaMKIIα; [1]): < 0.3 µM

Substance: KRPPKLGQIGRSKRVVAED [I17A]
- IC50 (CaMKIIα; [1]): < 0.3 µM

Substance: KRPPKLGQIGRSKRVVIAD [E18A]
- IC50 (CaMKIIα; [1]): < 0.3 µM

Substance: KRPPKLGQIGRSKRVVIEA [D19A]
- IC50 (CaMKIIα; [1]): < 0.3 µM
